Test results taken from US20240261310A1, “APPLICATION OF ALGINATE OLIGOSACCHARIDES” (HAITANG (JIANGSU) BIOTECHNOLOGY COMPANY, LTD., priority 2021, published 2024).

Legend:
[1] = test system: rats with AKI induced by renal ischemia-reperfusion (I/R) injury; experiment: Rat acute kidney injury (AKI) induced by ischemia-reperfusion (I/R); assay type: in vivo; settings: for level of serum creatinine / 24-hour urine output: Sprague Dawley rats, intragastric; for level of serum creatinine: 24 h after I/R; for mRNA levels of Kim-1 and NGAL in kidney tissues / inflammatory factors in kidney tissues (TLR4, p-NFκB/NFκB, pro-IL-1β/IL-1β): renal cortex; for mRNA levels of Kim-1 and NGAL in kidney tissues: 0.1 g/kg/day intragastric; for inflammatory factors in kidney tissues (TLR4, p-NFκB/NFκB, pro-IL-1β/IL-1β): western blotting, doses 0.01, 0.05, 0.1 g/kg/day, dose dependent
Description: Ischemia-reperfusion induced kidney injury is a classical animal model that simulates the acute kidney injury caused by clinical hypoperfusion. With the rat ischemia-reperfusion model, the author of the invention administered the alginate oligosaccharides with a uniform degree of polymerization as prepared by Example 1-3 and a mixture thereof, and then carried out comparison with a blank group and a non-administrated model group to investigate the therapeutic effects of the several alginate oligosaccharides with a uniform degree of polymerization.
30 male Sprague Dawley rats (purchased from the Laboratory Animal Center of Sun Yat-sen University) of 220-250 grams were selected. Before treatment, the 24-hour urine output was collected and measured without abnormalities. The rats to be modeled were randomly divided into the following groups: a sham group, a model group, and three alginate disaccharide groups with the doses of 0.01 g/kg/day, 0.05 g/kg/day and 0.1 g/kg/day respectively (6 rats in each group). In the present invention, the alginate disaccharide is abbreviated as “AOS2”. Intragastric administration was adopted, and rats in the model group and the sham group were all fed by gavage with the same volume of normal saline. On the day of operation, the rats were anesthetized intraperitoneally with 3% pentobarbital sodium and subjected to routine skin disinfection. The abdomen was sectioned to expose the left and right kidneys. In the sham group, the kidneys were only examined, and then the incision was sutured layer by layer to end the operation. In the model group and the modeled administration group, large bulldog clamps were used for occlusion of the renal pedicles on both sides, then the kidneys were recovered in place, and the incision was covered with gauze and dropwise added with a small amount of normal saline for rehydration. After 45 minutes, the bulldog clamps on both sides were released, and the incision was sutured layer by layer to end the operation. After operation, the rats were placed on a heating pad at 37° C. to wait for resuscitation, and then placed back into metabolic cages, in which the weight, food intake, water intake and urine output of the rats were measured. The rats were routinely fed after operation and sacrificed 24 hours later for sampling. […] Then, the serum creatinine in the rats was determined by using the creatinine assay kit from Nanjing Jiancheng, with the results shown in FIG. 10. During sampling, the kidneys on both sides were isolated, the cortex and inner medulla of each kidney were isolated, and the cortex was stored in trizol. When in use, mRNAs in the cortex were extracted using the trizol method, and the mRNA expressions of AKI biomarkers (KIM-1 and NGAL) were detected. A tissue lysis buffer was added to homogenize the kidneys by ultrasound, the total protein was then extracted, and the inflammatory factors (p-NFκB/NFκB and pro-IL-1β/IL-1β) in the renal cortex tissues were detected by western blotting. The experimental data were statistically analyzed by one-way ANOVA.
With the same experimental method as that for the alginate disaccharides, the effect of alginate trisaccharides against the rat acute kidney injury induced by ischemia-reperfusion was investigated. In the present invention, the alginate trisaccharide is abbreviated as “AOS3”. The serum creatinine in the rats was determined by using the creatinine assay kit from Nanjing Jiancheng, with the results shown in FIG. 14. During sampling, the kidneys on both sides were isolated, the cortex and inner medulla of each kidney were isolated, and the cortex was stored in trizol. When in use, mRNAs in the cortex were extracted using the trizol method, and the mRNA expression of AKI biomarkers (KIM-1 and NGAL) was detected. […]

[2] = test system: mice with AKI induced by endotoxin phosphorus lipopolysaccharides (LPS); experiment: Mouse acute kidney injury induced by endotoxin phosphorus lipopolysaccharides (LPS); assay type: in vivo; settings: for level of serum creatinine: C57/B16 mice, LPS 15 mg/kg i.p., 24 h; for level of serum creatinine / gene expressions of inflammatory factors (IL-1β, IL-18, TNF-α, MCP-1) / mRNA levels of Kim-1 and NGAL in kidney tissues / protein expressions of renal inflammatory factors (TLR4, p-NFκB/NFκB, pro-IL-1β/IL-1β): 0.1 g/kg/day intragastric; for gene expressions of inflammatory factors (IL-1β, IL-18, TNF-α, MCP-1) / mRNA levels of Kim-1 and NGAL in kidney tissues / protein expressions of renal inflammatory factors (TLR4, p-NFκB/NFκB, pro-IL-1β/IL-1β): renal cortex, vs LPS group; for gene expressions of inflammatory factors (IL-1β, IL-18, TNF-α, MCP-1) / mRNA levels of Kim-1 and NGAL in kidney tissues: Qpcr; for protein expressions of renal inflammatory factors (TLR4, p-NFκB/NFκB, pro-IL-1β/IL-1β): western blotting
Description: The kidney injury induced by treatment with endotoxin phosphorus lipopolysaccharides is a classical and standard animal model that simulates the acute kidney injury induced by clinical infection. With the mouse endotoxin phosphorus lipopolysaccharide model, we administered the alginate oligosaccharides with different uniform degrees of polymerization and a mixture thereof, and then compared with a blank group and a non-administrated model group to investigate the therapeutic effects of the individual alginate oligosaccharides with a uniform degree of polymerization.
24 male C57/B16 mice of 22-28 grams were selected. […] LPS was used for modeling to induce the occurrence of sepsis-associated acute kidney injury. During modeling, each model group was intraperitoneally injected with LPS at 15 mg/kg, and the control group was intraperitoneally injected with the same volume of normal saline. Immediately after modeling, the mice were put back into the mouse metabolic cages for observation, in which the weight, food intake, water intake and urine output of the mice were measured. The mice were sacrificed 24 hours later for sampling, and urine was collected. […] Then, the serum creatinine in the mice was determined by using the creatinine assay kit from Nanjing Jiancheng, with the results shown in FIG. 23. During sampling, the kidneys on both sides were isolated, the cortex and inner medulla of each kidney were isolated, and the cortex was stored in trizol. When in use, mRNAs in the cortex were extracted using the trizol method, and the mRNA expressions of AKI biomarkers (KIM-1 and NGAL, with the results shown in FIG. 24) and inflammatory factors (IL-1β, IL-18, TNF-α, and MCP-1, with the results shown in FIG. 25) were detected by the Qpcr method. A tissue lysis buffer was added to homogenize the kidneys by ultrasound, the total protein was then extracted, and the inflammatory factors (p-NFκB/NFκB, pro-IL-1β/IL-1β) in the renal cortex tissues were detected by western blotting. The experimental data were statistically analyzed by one-way ANOVA.
The same experimental method was used as that for the alginate disaccharides. The serum creatinine in the mice was determined by using the creatinine assay kit from Nanjing Jiancheng, with the results shown in FIG. 27. During sampling, the kidneys on both sides were isolated, the cortex and inner medulla of each kidney were isolated, and the cortex was stored in trizol. When in use, mRNAs in the cortex were extracted using the trizol method, and the mRNA expressions of AKI biomarkers (KIM-1 and NGAL, with the results shown in FIG. 28) and inflammatory factors (IL-1β, IL-18, TNF-α, and MCP-1, with the results shown in FIG. 29) were detected by the Qpcr method. A tissue lysis buffer was added to homogenize the kidneys by ultrasound, the total protein was then extracted, and the inflammatory factors (p-NFκB/NFκB, pro-IL-IP/IL-1β) in the renal cortex tissues were detected by western blotting. In addition, the animals were sacrificed after the last blood collection, the kidneys were fixed in 4% formaldehyde solution, and subjected to conventional paraffin embedding, sectioning, and HE staining to observe the general kidney tissue morphology under a light microscope. The experimental data were statistically analyzed by one-way ANOVA.
The same experimental method was used as that for the alginate disaccharides and alginate trisaccharides. […] The serum creatinine in the mice was determined by using the creatinine assay kit from Nanjing Jiancheng, with the results shown in FIG. 32. During sampling, the kidneys on both sides were isolated, the cortex and inner medulla of each kidney were isolated, and the cortex was stored in trizol.

[3] = three doses 0.01, 0.05, 0.1 g/kg/day, vs I/R model group

Substance | level of serum creatinine ([1]; 0.1 g/kg/day) | level of serum creatinine [1, 3] | 24-hour urine output [1, 3] | mRNA levels of Kim-1 and NGAL in kidney tissues ([1]; vs I/R model group) | inflammatory factors in kidney tissues (TLR4, p-NFκB/NFκB, pro-IL-1β/IL-1β) [1] | level of serum creatinine [2] | gene expressions of inflammatory factors (IL-1β, IL-18, TNF-α, MCP-1) [2] | mRNA levels of Kim-1 and NGAL in kidney tissues [2] | protein expressions of renal inflammatory factors (TLR4, p-NFκB/NFκB, pro-IL-1β/IL-1β) [2] | 24-hour urine output ([1]; 0.1 g/kg/day) | renal histopathological manifestations ([1]; HE staining, 0.1 g/kg/day) | renal histopathological manifestations ([2]; HE staining, LPS+AOS3 group)
alginate disaccharide sodium salt [AOS2] | basically return to a normal level | decreased significantly | decreased somewhat | significantly reduced the expressions of both markers | reduced the production of inflammatory factors | decreased significantly and could basically return to a normal level | significantly reduced the production of inflammatory factors | significantly reduced | significantly reduced the production of the inflammatory factors |  |  | 
alginate tetrasaccharide sodium salt [AOS4] | restore to a normal level | decreased significantly | somewhat reduced | significantly reduce both markers | significantly reduce the production of inflammatory factors | significantly reduced the serum creatinine | significantly reduced | significantly reduced | significantly inhibited the inflammatory responses of the kidneys | obviously better than that of the mixed saccharides |  | 
alginate trisaccharide sodium salt [AOS3] | basically return to a normal level | decreased significantly | somewhat decreased | significantly reduced the expressions of both markers | reduce the production of inflammatory factors | decreased significantly and could basically return to a normal level | significantly reduced the production of inflammatory factors | significantly reduced | significantly reduced the production of the inflammatory factors | basically recovered to the normal level | the renal tubules showed mild lesions | the glomeruli and renal tubules showed mild lesions
